# Measured values: article PMC7382147, “An effective UFLC–MS/MS method used to study pharmacokinetics of major constituents of Fukeqianjin formula in rat plasma” (Chinese Medicine, 2020)
# Like-named read-outs stand apart in the source and are kept apart here.
# Legend:
# [1] = Freeze–thaw stability of QC samples (−20 °C, three times); assay type: physicochemical, rat; settings: plasma QC, freeze (−20 °C) and thaw three times
# Protocol: (§1) Aliquots of 100 μL plasma samples were mixed with 10 μL I.S. samples (1 μg/mL, in MeOH), then added with 500 μL ACN, respectively, and vortexed for 5 min, centrifugated at 10,000 rpm for 10 min, the supernatants were transferred into clean vials and dried in a vacuum centrifugal concentrator at 1200 rpm, 37 °C. After that, 100 μL ACN was added and ultrasonic (frequency 40 kHz, power 250 W) extracted for 5 min to dissolve the dry residue, vortexed for 1 min and centrifugated at 10,000 rpm for 5 min, 1 μL of each final supernatant was injected into UFLC–MS/MS for analysis.
# (§2) Six replicates of low, medium and high concentrations of quality control (QC) samples were used to verify the stabilities under different conditions including: place at room temperature for 8 h, freeze (− 20 °C) and thaw for three times, and store at − 20 °C for 20 days.
# [2] = Ordinary stability of QC samples (room temperature for 8 h); assay type: physicochemical, rat; settings: plasma QC, room temperature 8 h
# Protocol: as §1, §2
# [3] = Pharmacokinetic study in rat plasma after oral administration of FKQJF extract (UFLC–MS/MS); assay type: in vivo, Sprague-Dawley (SD) rats; settings: for AUC(0-inf) / AUC(0-t) / Cmax / half-life / MRT last / MRT inf / Tmax: oral FKQJF extract, single dose 3.2 g/kg, mean ± SD; for MRT last: read-out: MRT0→t; for MRT inf: read-out: MRT0→∞
# Protocol: as §1
# An 8050 UFLC–MS/MS system equipped with LC-30A binary pump, a SIL-30AC autosampler, a SPD-M30A PDA detector, a CTO-20AC column oven, and a 8050 triple quadrupole mass spectrometer with an electrospray ionization source (ESI) was applied to detect and quantify FKQJF compounds in plasma samples. Data were acquired and processed with the software LabSolution (Ver. 5.6).
# A Kinetex XB-C18 HPLC column (100 × 2.1 mm, 2.6 μm) linked with an equivalent guard column was used for chromatographic separation. The aqueous phase contained 0.2% formic acid was used as mobile phase A, and organic phase ACN as mobile phase B. The gradient elution method using in this program was: 3–5 min, 28–31% B; 5–7 min, 31–34% B; 7–9 min, 34–65% B; 9–10 min, 65–95% B; 10–11.5 min, 95% B. The flow rate of mobile phase, column temperature and autosampler temperature was 0.4 mL/min, 30 °C and 4 °C, respectively. The injection volume of each sample was set as 1 μL. The main MS spectrum parameters were set as follows: the flow rate of drying gas (N2) was 10.0 L/min; the atomized gas was 3.0 L/min and the heating gas flow rate was 10.0 L/min. The main temperatures of interface, desolvation and heat block was 300 °C, 250 °C and 400 °C, respectively. And, the interface and detector voltage were 3 kV and 1.8 kV.
# Rats were divided into a blank group and a FKQJF administration group (6 rats for each), and fasted for 24 h. Each rat of the administration group was given FKQJF extract suspension at a single dose of 3.2 g FKQJF/kg body weight through oral administration in parallel. Blood samples (0.25 mL) were gathered from the orbital venous plexus of each rat, with FKQJF group gathered at 14 serial timepoints (6 rats for each) as 0.083 h, 0.16 h, 0.33 h, 0.5 h, 0.75 h, 1.0 h, 1.5 h, 2 h, 3 h, 4 h, 6 h, 8 h, 12 h and 24 h after drug administration. The blood samples were centrifugated at 6000g for 10 min to isolate plasma and stored at − 20 °C for further analysis.
# Data were analyzed using the Drug and Statistics (DAS) Software version 2.0 (DAS 2.0, Mathematical Pharmacology Professional Committee of China, Shanghai, China). The non-compartmental mode was applied to obtain the following PK parameters: area under the plasma concentration–time curve from time zero to the time of last quantifiable concentration (AUC0→t) and area under the plasma concentration–time curve to time infinity (AUC0→∞), the elimination half-life (t1/2), mean retention time to last sampling time (MRT0→t) and mean retention time to infinity (MRT0→∞). The maximum plasma concentration (Cmax) and the time to maximum concentration (Tmax) were observed directly from the concentration–time (C–T) curves and measured data. All data are presented as mean ± SD.
# [4] = Long-term stability of QC samples (−20 °C for 20 days); assay type: physicochemical, rat; settings: plasma QC
# Protocol: as §1, §2
# [5] = oral FKQJF extract 3.2 g/kg, post dose
smiles,measurement,setting,value
"O=C1C[C@@H](c2ccc(O)cc2)Oc2cc(O)cc(O)c21 [Analyte 14, naringenin]",Freeze–thaw stability Mean,[1]; spiked 50 ng/mL,88.34%
same,Freeze–thaw stability Mean,[1]; spiked 250 ng/mL,116.86%
same,Freeze–thaw stability Mean,[1]; spiked 500 ng/mL,84.71%
same,Ordinary stability Mean,[2]; spiked 50 ng/mL,80.39%
same,Ordinary stability Mean,[2]; spiked 250 ng/mL,92.68%
same,Ordinary stability Mean,[2]; spiked 500 ng/mL,101.11%
same,AUC(0-inf),[3]; Sprague-Dawley,206 ± 58.7 ng·h/mL
same,AUC(0-t),[3]; Sprague-Dawley,144 ± 16.5 ng·h/mL
same,Cmax,[3]; Sprague-Dawley,67.7 ± 27.6 ng/mL
same,half-life,[3]; Sprague-Dawley,727 ± 559 min
same,MRT last,[3]; Sprague-Dawley,6.67 ± 1.42 h
same,MRT inf,[3]; Sprague-Dawley,17 ± 8.17 h
same,Tmax,[3],2.00 ± 0.00 h
same,Long-term stability Mean,[4]; spiked 50 ng/mL,91.66%
same,Long-term stability Mean,[4]; spiked 250 ng/mL,103.10%
same,Long-term stability Mean,[4]; spiked 500 ng/mL,99.51%
"C=C1CC[C@@H]2[C@](C)(CO)[C@H](O)CC[C@@]2(C)[C@@H]1/C=C/C1=CCOC1=O [Analyte 15, 14-deoxy-11,12-didehydro-andrographolide]",Freeze–thaw stability Mean,[1]; spiked 60 ng/mL,114.11%
same,Freeze–thaw stability Mean,[1]; spiked 300 ng/mL,105.94%
same,Freeze–thaw stability Mean,[1]; spiked 600 ng/mL,118.41%
same,Ordinary stability Mean,[2]; spiked 60 ng/mL,89.92%
same,Ordinary stability Mean,[2]; spiked 300 ng/mL,119.43%
same,Ordinary stability Mean,[2]; spiked 600 ng/mL,82.90%
same,AUC(0-inf),[3]; Sprague-Dawley,81.1 ± 19.4 ng·h/mL
same,AUC(0-t),[3]; Sprague-Dawley,74.3 ± 17.5 ng·h/mL
same,Cmax,[3]; Sprague-Dawley,47.7 ± 5.92 ng/mL
same,half-life,[3]; Sprague-Dawley,72 ± 44.4 min
same,MRT last,[3]; Sprague-Dawley,2.21 ± 0.48 h
same,MRT inf,[3]; Sprague-Dawley,3.05 ± 1.01 h
same,Tmax,"[3]; Sprague-Dawley, read-out: Tmax",1.42 ± 0.63 h
same,shape of the plasma concentration–time curve,[3]; oral FKQJF extract 3.2 g/kg,double-peaks
same,time of first peak of the concentration–time curve,[3]; [5],0 to 1 h
same,time of second peak of the concentration–time curve,[3]; [5],1.5 to 3 h
same,Long-term stability Mean,[4]; spiked 60 ng/mL,100.55%
same,Long-term stability Mean,[4]; spiked 300 ng/mL,98.43%
same,Long-term stability Mean,[4]; spiked 600 ng/mL,88.35%
"COc1ccccc1-c1cc(=O)c2c(O)cc(OC)c(OC)c2o1 [Analyte 16, panicolin]",Freeze–thaw stability Mean,[1]; spiked 50 ng/mL,105.76%
same,Freeze–thaw stability Mean,[1]; spiked 250 ng/mL,108.03%
same,Freeze–thaw stability Mean,[1]; spiked 500 ng/mL,95.34%
same,Ordinary stability Mean,[2]; spiked 50 ng/mL,83.35%
same,Ordinary stability Mean,[2]; spiked 250 ng/mL,92.98%
same,Ordinary stability Mean,[2]; spiked 500 ng/mL,88.55%
same,AUC(0-inf),[3]; Sprague-Dawley,251 ± 97.6 ng·h/mL
same,AUC(0-t),[3]; Sprague-Dawley,177 ± 17.1 ng·h/mL
same,Cmax,[3]; Sprague-Dawley,31.4 ± 6.94 ng/mL
same,half-life,[3]; Sprague-Dawley,758 ± 763 min
same,MRT last,[3]; Sprague-Dawley,8.68 ± 1.17 h
same,MRT inf,[3]; Sprague-Dawley,20.1 ± 5.01 h
same,Tmax,"[3]; Sprague-Dawley, read-out: Tmax",2 h
same,shape of the plasma concentration–time curve,[3]; oral FKQJF extract 3.2 g/kg,double-peaks
same,Long-term stability Mean,[4]; spiked 50 ng/mL,105.80%
same,Long-term stability Mean,[4]; spiked 250 ng/mL,89.82%
same,Long-term stability Mean,[4]; spiked 500 ng/mL,95.48%
"C=C1CC[C@@H]2[C@](C)(CO)CCC[C@@]2(C)[C@@H]1CCC1=CCOC1=O [Analyte 17, andrograpanin]",Freeze–thaw stability Mean,[1]; spiked 60 ng/mL,82.73%
same,Freeze–thaw stability Mean,[1]; spiked 300 ng/mL,86.68%
same,Freeze–thaw stability Mean,[1]; spiked 600 ng/mL,115.83%
same,Ordinary stability Mean,[2]; spiked 60 ng/mL,81.80%
same,Ordinary stability Mean,[2]; spiked 300 ng/mL,117.99%
same,Ordinary stability Mean,[2]; spiked 600 ng/mL,89.06%
same,AUC(0-inf),[3]; Sprague-Dawley,179 ± 14.3 ng·h/mL
same,AUC(0-t),[3]; Sprague-Dawley,161 ± 12.7 ng·h/mL
same,Cmax,[3]; Sprague-Dawley,19.2 ± 2.48 ng/mL
same,half-life,[3]; Sprague-Dawley,359 ± 24 min
same,MRT last,[3]; Sprague-Dawley,7.3 ± 0.38 h
same,MRT inf,[3]; Sprague-Dawley,9.82 ± 0.45 h
same,Tmax,"[3]; Sprague-Dawley, read-out: Tmax",3.33 ± 2.31 h
same,shape of the plasma concentration–time curve,[3]; oral FKQJF extract 3.2 g/kg,double-peaks
same,Long-term stability Mean,[4]; spiked 60 ng/mL,87.43%
same,Long-term stability Mean,[4]; spiked 300 ng/mL,90.66%
same,Long-term stability Mean,[4]; spiked 600 ng/mL,117.51%
"CCC/C=C1\OC(=O)C2=C1CCC=C2 [Analyte 18, Z-ligustilide]",Freeze–thaw stability Mean,[1]; spiked 20 ng/mL,88.16%
same,Freeze–thaw stability Mean,[1]; spiked 200 ng/mL,112.10%
same,Freeze–thaw stability Mean,[1]; spiked 400 ng/mL,104.63%
same,Ordinary stability Mean,[2]; spiked 20 ng/mL,107.46%
same,Ordinary stability Mean,[2]; spiked 200 ng/mL,86.65%
same,Ordinary stability Mean,[2]; spiked 400 ng/mL,106.31%
same,AUC(0-inf),[3]; Sprague-Dawley,194 ± 27.9 ng·h/mL
same,AUC(0-t),[3]; Sprague-Dawley,74.7 ± 8.31 ng·h/mL
same,Cmax,[3]; Sprague-Dawley,10.2 ± 0.58 ng/mL
same,half-life,[3]; Sprague-Dawley,2020 ± 1630 min
same,MRT last,[3]; Sprague-Dawley,9.85 ± 0.85 h
same,MRT inf,[3]; Sprague-Dawley,48.2 ± 39.8 h
same,Tmax,"[3]; Sprague-Dawley, read-out: Tmax",1.83 ± 0.29 h
same,shape of the plasma concentration–time curve,[3]; oral FKQJF extract 3.2 g/kg,double-peaks
same,Long-term stability Mean,[4]; spiked 20 ng/mL,114.56%
same,Long-term stability Mean,[4]; spiked 200 ng/mL,86.82%
same,Long-term stability Mean,[4]; spiked 400 ng/mL,118.76%
"COc1cc(O)c2c(=O)cc(-c3ccccc3)oc2c1OC [Analyte 19, 7-O-methylwogonin]",Freeze–thaw stability Mean,[1]; spiked 10 ng/mL,103.66%
same,Freeze–thaw stability Mean,[1]; spiked 150 ng/mL,111.86%
same,Freeze–thaw stability Mean,[1]; spiked 300 ng/mL,94.97%
same,Ordinary stability Mean,[2]; spiked 10 ng/mL,96.33%
same,Ordinary stability Mean,[2]; spiked 150 ng/mL,80.66%
same,Ordinary stability Mean,[2]; spiked 300 ng/mL,96.04%
same,AUC(0-inf),[3]; Sprague-Dawley,252 ± 62.5 ng·h/mL
same,AUC(0-t),[3]; Sprague-Dawley,249 ± 65.5 ng·h/mL
same,Cmax,[3]; Sprague-Dawley,169 ± 73.5 ng/mL
same,half-life,[3]; Sprague-Dawley,66 ± 28.2 min
same,MRT last,[3]; Sprague-Dawley,2.44 ± 0.12 h
same,MRT inf,[3]; Sprague-Dawley,2.55 ± 0.21 h
same,Tmax,"[3]; Sprague-Dawley, read-out: Tmax",2 h
same,Long-term stability Mean,[4]; spiked 10 ng/mL,116.14%
same,Long-term stability Mean,[4]; spiked 150 ng/mL,84.29%
same,Long-term stability Mean,[4]; spiked 300 ng/mL,85.96%
